# According to publication PMC12396409, “Screening and hit evaluation of a microbial metabolite library against the pathogenic Plasmodium falciparum and Toxoplasma gondii parasites” (International Journal for Parasitology: Drugs and Drug …, 2025):
# Like-named read-outs stand apart in the source and are kept apart here.
# Columns and labels:
# [1] = tested on: P. falciparum 3D7 parasites; test: P. falciparum growth inhibition assay, 1-cycle (72 h treatment), SYBR DNA staining (library screen at 2 μg/mL and dose-response); format: cell-based, Plasmodium falciparum
# [2] = tested on: P. falciparum 3D7 parasites; test: P. falciparum growth inhibition assay, 2-cycle (120 h treatment), delayed-death screen and dose-response; format: cell-based, Plasmodium falciparum
# [3] = tested on: T. gondii RH strain (RH-Tub-eYFP) tachyzoites; test: microbe, parasite or virus in culture; format: cell-based, Toxoplasma gondii; settings: for percent parasite growth at 2 µg/mL: Toxoplasma gondii
# [4] = library screen at 2 μg/mL, 72 h, % growth, replicate 1
# [5] = library screen at 2 μg/mL, 72 h, % growth, replicate 2
# [6] = library screen at 2 μg/mL, 120 h, % growth, replicate 1
# [7] = library screen at 2 μg/mL, 120 h, % growth, replicate 2
# [8] = 72 h, T. gondii, 72 h, screen at 2 μg/mL, replicate 1, read-out: Tg_72h_%Growth_Rep1
# [9] = 72 h, T. gondii, 72 h, screen at 2 μg/mL, replicate 2, read-out: Tg_72h_%Growth_Rep2
# [10] = P. falciparum, 72 h, parasite screen 2 μg/mL, % growth, replicate 1
# [11] = P. falciparum, 72 h, parasite screen 2 μg/mL, % growth, replicate 2
# [12] = P. falciparum, 120 h, parasite screen 2 μg/mL, % growth, replicate 1
# [13] = P. falciparum, 120 h, parasite screen 2 μg/mL, % growth, replicate 2
# [14] = T. gondii, 72 h, parasite screen 2 μg/mL, % growth, replicate 1
# [15] = T. gondii, 72 h, parasite screen 2 μg/mL, % growth, replicate 2
# [16] = Plasmodium falciparum, 3D7, 72 h, P. falciparum, 72 h, screen at 2 μg/mL, replicate 1, read-out: Pf_72h_%Growth_Rep1
# [17] = Plasmodium falciparum, 3D7, 72 h, P. falciparum, 72 h, screen at 2 μg/mL, replicate 2, read-out: Pf_72h_%Growth_Rep2
# [18] = Plasmodium falciparum, 3D7, 120 h, P. falciparum, 120 h, screen at 2 μg/mL, replicate 1, read-out: Pf_120h_%Growth_Rep1
# [19] = Plasmodium falciparum, 3D7, 120 h, P. falciparum, 120 h, screen at 2 μg/mL, replicate 2, read-out: Pf_120h_%Growth_Rep2
compound,measurement,setting,value
CN1C(=O)[C@]23C[C@H]4C(C)(C)[C@]5(CNc6c5ccc5c6OC=CC(C)(C)O5)C[C@@]41CN2CC[C@@]3(C)O [Derquantel],Pf_72h_%Growth_Rep1,[1]; [4],84.92%
same,Pf_72h_%Growth_Rep2,[1]; [5],84.29%
same,Pf_120h_%Growth_Rep1,[2]; [6],88.90%
same,Pf_120h_%Growth_Rep2,[2]; [7],91.44%
same,Tg_72h_%Growth_Rep1,[3]; [4],207.28%
same,Tg_72h_%Growth_Rep2,[3]; [5],97.75%
"CC[C@H]1OC(=O)C[C@@H](O)[C@H](C)[C@@H](O[C@@H]2O[C@H](C)[C@@H](O[C@H]3C[C@@](C)(O)[C@@H](O)[C@H](C)O3)[C@H](N(C)C)[C@H]2O)[C@@H](CC=O)C[C@@H](C)C(=O)/C=C/C(C)=C/[C@@H]1CO[C@@H]1O[C@H](C)[C@@H](O)[C@@H](OC)[C@H]1OC [Tylosin, reference compound]",activity at 2 µg/mL,"[1]; Plasmodium falciparum, 3D7; P. falciparum, 2 μg/mL, 72 h; read-out: 1) Growth (%) at 72 h",39.2%
same,activity at 2 µg/mL,"[1]; Plasmodium falciparum, 3D7, P. falciparum, 72 h, screen at 2 μg/mL, replicate 1, read-out: Pf_72h_%Growth_Rep1",39.8%
same,activity at 2 µg/mL,"[1]; Plasmodium falciparum, 3D7, P. falciparum, 72 h, screen at 2 μg/mL, replicate 2, read-out: Pf_72h_%Growth_Rep2",38.7%
same,3) Fold change (72 h/120 h),"[2]; P. falciparum, growth at 72 h / growth at 120 h, 2 μg/mL",2.3
same,activity at 2 µg/mL,"[2]; Plasmodium falciparum, 3D7; P. falciparum, 2 μg/mL, 120 h; read-out: 2) Growth (%) at 120 h",17.3%
same,activity at 2 µg/mL,"[2]; Plasmodium falciparum, 3D7, P. falciparum, 120 h, screen at 2 μg/mL, replicate 1, read-out: Pf_120h_%Growth_Rep1",31.5%
same,activity at 2 µg/mL,"[2]; Plasmodium falciparum, 3D7, P. falciparum, 120 h, screen at 2 μg/mL, replicate 2, read-out: Pf_120h_%Growth_Rep2",3.04%
same,percent parasite growth at 2 µg/mL,[3]; [8],29.4%
same,percent parasite growth at 2 µg/mL,[3]; [9],23.4%
COc1cccc2oc3c4c(cc(OC)c3c(=O)c12)O[C@H]1OC=C[C@@H]41 [BIA-M1214],Pf_72h_%Growth_Rep1,"[1]; P. falciparum 3D7, 72 h, parasite screen at 2 μg/mL, % growth, replicate 1",80.14%
same,Pf_72h_%Growth_Rep2,"[1]; P. falciparum 3D7, 72 h, parasite screen at 2 μg/mL, % growth, replicate 2",43.63%
same,Pf_120h_%Growth_Rep1,"[2]; P. falciparum 3D7, 120 h, parasite screen at 2 μg/mL, % growth, replicate 1",94.17%
same,Pf_120h_%Growth_Rep2,"[2]; P. falciparum 3D7, 120 h, parasite screen at 2 μg/mL, % growth, replicate 2",84.03%
same,Tg_72h_%Growth_Rep1,"[3]; T. gondii, 72 h, parasite screen at 2 μg/mL, % growth, replicate 1",111.85%
same,Tg_72h_%Growth_Rep2,"[3]; T. gondii, 72 h, parasite screen at 2 μg/mL, % growth, replicate 2",93.41%
Cc1cc(O)c2c(c1)C(=O)c1cc(O)cc(O)c1C2=O [Emodin],activity at 2 µg/mL,"[1]; Plasmodium falciparum, 3D7, library screen at 2 μg/mL, 72 h, % growth, replicate 1, read-out: Pf_72h_%Growth_Rep1",87.3%
same,activity at 2 µg/mL,"[1]; Plasmodium falciparum, 3D7, library screen at 2 μg/mL, 72 h, % growth, replicate 2, read-out: Pf_72h_%Growth_Rep2",86.6%
same,activity at 2 µg/mL,"[2]; Plasmodium falciparum, 3D7, library screen at 2 μg/mL, 120 h, % growth, replicate 1, read-out: Pf_120h_%Growth_Rep1",85.9%
same,activity at 2 µg/mL,"[2]; Plasmodium falciparum, 3D7, library screen at 2 μg/mL, 120 h, % growth, replicate 2, read-out: Pf_120h_%Growth_Rep2",114%
same,percent parasite growth at 2 µg/mL,"[3]; 72 h, library screen at 2 μg/mL, 72 h, % growth, replicate 1, read-out: Tg_72h_%Growth_Rep1",116%
same,percent parasite growth at 2 µg/mL,"[3]; 72 h, library screen at 2 μg/mL, 72 h, % growth, replicate 2, read-out: Tg_72h_%Growth_Rep2",87.4%
CC(C)[C@H]1C(=O)OC[C@H](NC(=O)c2nc3ccccc3cc2O)C(=O)N2CCCC[C@@H]2C(=O)NCC(=O)N(C)CC(=O)N(C)[C@H](C(C)C)C(=O)OC[C@@H](NC(=O)c2nc3ccccc3cc2O)C(=O)N2CCCC[C@@H]2C(=O)NCC(=O)N(C)CC(=O)N1C [Sandramycin],Pf_72h_%Growth_Rep1,[1]; [10],-1.10%
same,Pf_72h_%Growth_Rep2,[1]; [11],-0.11%
same,Pf_120h_%Growth_Rep1,[2]; [12],-0.53%
same,Pf_120h_%Growth_Rep2,[2]; [13],18.12%
same,Tg_72h_%Growth_Rep1,[3]; [14],1.61%
same,Tg_72h_%Growth_Rep2,[3]; [15],2.90%
CCC(C(=O)C(C)C(O)C(C)CCc1ccc(C)c(O)c1C(=O)O)C1OC(CC)(C2CCC(O)(CC)C(C)O2)CC1C (stereo not drawn) [BIA-L1533],Pf_72h_%Growth_Rep1,"[1]; P. falciparum 3D7, 72 h, library screen at 2 μg/mL, % growth, replicate 1",6.55%
same,Pf_72h_%Growth_Rep2,"[1]; P. falciparum 3D7, 72 h, library screen at 2 μg/mL, % growth, replicate 2",4.89%
same,Pf_120h_%Growth_Rep1,"[2]; P. falciparum 3D7, 120 h, library screen at 2 μg/mL, % growth, replicate 1",6.55%
same,Pf_120h_%Growth_Rep2,"[2]; P. falciparum 3D7, 120 h, library screen at 2 μg/mL, % growth, replicate 2",19.46%
same,Tg_72h_%Growth_Rep1,"[3]; T. gondii RH, 72 h, library screen at 2 μg/mL, % growth, replicate 1",-0.84%
same,Tg_72h_%Growth_Rep2,"[3]; T. gondii RH, 72 h, library screen at 2 μg/mL, % growth, replicate 2",-0.33%
COC(=O)C1=CO[C@@H](C)[C@@H]2CN3CCc4c([nH]c5cc(OC)c(OC)cc45)[C@H]3C[C@H]12 [Reserpiline],Pf_72h_%Growth_Rep1,[1]; [10],29.90%
same,Pf_72h_%Growth_Rep2,[1]; [11],27.58%
same,Pf_120h_%Growth_Rep1,[2]; [12],31.58%
same,Pf_120h_%Growth_Rep2,[2]; [13],13.59%
same,Tg_72h_%Growth_Rep1,[3]; [14],145.39%
same,Tg_72h_%Growth_Rep2,[3]; [15],95.76%
CC1=C2C(=CO[C@H](C)[C@H]2C)C(O)=C(C(=O)O)C1=O [Citrinin],activity at 2 µg/mL,[1]; [16],89.1%
same,activity at 2 µg/mL,[1]; [17],84%
same,activity at 2 µg/mL,[2]; [18],138%
same,activity at 2 µg/mL,[2]; [19],82.5%
same,percent parasite growth at 2 µg/mL,[3]; [8],87.8%
same,percent parasite growth at 2 µg/mL,[3]; [9],82%
CC1(C)CCC[C@]2(C)[C@@H](CO)C(CO)=CC[C@@H]12 [Drimendiol],Pf_72h_%Growth_Rep1,[1]; [4],88.42%
same,Pf_72h_%Growth_Rep2,[1]; [5],85.66%
same,Pf_120h_%Growth_Rep1,[2]; [6],96.59%
same,Pf_120h_%Growth_Rep2,[2]; [7],92.13%
same,Tg_72h_%Growth_Rep1,[3]; [4],182.34%
same,Tg_72h_%Growth_Rep2,[3]; [5],100.93%
Amphomycin,Pf_72h_%Growth_Rep1,[1]; [4],83.34%
same,Pf_72h_%Growth_Rep2,[1]; [5],87.67%
same,Pf_120h_%Growth_Rep1,[2]; [6],117.00%
same,Pf_120h_%Growth_Rep2,[2]; [7],80.15%
same,Tg_72h_%Growth_Rep1,[3]; [4],94.79%
same,Tg_72h_%Growth_Rep2,[3]; [5],89.38%
Diacetoxyscirpenol,Pf_72h_%Growth_Rep1,[1],9.42%
same,Pf_72h_%Growth_Rep2,[1],-2.86%
same,Pf_120h_%Growth_Rep1,[2],13.51%
same,Pf_120h_%Growth_Rep2,[2],-0.91%
same,Tg_72h_%Growth_Rep1,[3],-1.25%
same,Tg_72h_%Growth_Rep2,[3],-0.43%
C/C=C(\C)[C@H](O)[C@H](C)/C=C(C)/C=C/C/C(C)=C/Cc1oc(OC)c(C)c(=O)c1C [Actinopyrone A],Pf_72h_%Growth_Rep1,[1]; [4],87.45%
same,Pf_72h_%Growth_Rep2,[1]; [5],86.38%
same,Pf_120h_%Growth_Rep1,[2]; [6],139.24%
same,Pf_120h_%Growth_Rep2,[2]; [7],89.64%
same,Tg_72h_%Growth_Rep1,[3]; [4],80.38%
same,Tg_72h_%Growth_Rep2,[3]; [5],90.86%
COc1ccc2c(c1)N(C(C)=O)[C@H]1[C@@H]3CO[C@H](C)[C@@H]4CN5CC[C@]21[C@@H]5C[C@H]34 [Strychnospermine],Pf_72h_%Growth_Rep1,[1]; [10],72.81%
same,Pf_72h_%Growth_Rep2,[1]; [11],85.90%
same,Pf_120h_%Growth_Rep1,[2]; [12],157.71%
same,Pf_120h_%Growth_Rep2,[2]; [13],76.73%
same,Tg_72h_%Growth_Rep1,[3]; [14],96.72%
same,Tg_72h_%Growth_Rep2,[3]; [15],111.43%
CCCCCCCCCCCC[C@@H](C(=O)O)[C@H](C)C(=O)O [Roccellic acid],Pf_72h_%Growth_Rep1,[1]; [10],81.49%
same,Pf_72h_%Growth_Rep2,[1]; [11],118.80%
same,Pf_120h_%Growth_Rep1,[2]; [12],69.96%
same,Pf_120h_%Growth_Rep2,[2]; [13],129.33%
same,Tg_72h_%Growth_Rep1,[3]; [14],114.12%
same,Tg_72h_%Growth_Rep2,[3]; [15],89.45%
C=C1[C@@H](C)[C@H]2[C@H](Cc3ccccc3)NC(=O)[C@]23OC(=O)/C=C/[C@H](O)CCC[C@@H](C)C/C=C/[C@H]3[C@@H]1O [Cytochalasin B],activity at 2 µg/mL,[1]; [16],8.23%
same,activity at 2 µg/mL,[1]; [17],10.3%
same,activity at 2 µg/mL,[2]; [18],-1.09%
same,activity at 2 µg/mL,[2]; [19],8.72%
same,percent parasite growth at 2 µg/mL,[3]; [8],31.3%
same,percent parasite growth at 2 µg/mL,[3]; [9],60.5%
